Experimental data as given in patent US20160250190A1, “N-METHYL PYRAZOLOANTHRONE FOR TREATMENT OF CANCER” (THE GENERAL HOSPITAL CORPORATION, priority 2013, published 2016).
pIC50: −log10 of the molar value. Entries after “also recorded” stand apart in the source; their conditions may differ.

How the values were obtained:
[1] = system: ptD primary ovarian cancer cells; test: MTT assay in ptD cells; assay type: cell-based, human; details: for dose of single agent giving virtually complete cell death (95% cell death) / pIC50: ptD, 72 h; for dose of single agent giving virtually complete cell death (95% cell death): agent alone; for pIC50: Homo sapiens
Protocol: Drug responses were evaluated in the well-established OVCAR5 cancer cell line and a variety of primary ovarian cancer cells lines derived from patient ascites (ptD, ptH, ptG, PKD1, PKD2).

OVCAR5 cells [2] = test: MTT assay in OVCAR5 cells; assay type: cell-based, human; details: for dose of single agent giving virtually complete cell death (95% cell death): 72 h, agent alone; for pIC50: Homo sapiens, OVCAR-5, 72 h
Protocol: (§1) Drug responses were evaluated in the well-established OVCAR5 cancer cell line and a variety of primary ovarian cancer cells lines derived from patient ascites ([…], PKD1, PKD2).

[3] = system: c-JUN phosphorylation (canonical downstream target of JNKs); test: western blot of c-JUN phosphorylation in ptD cells; assay type: cell-based, human; details: 25 uM, 30 min
MISR2 (MISRII) = target: T1, MISR2 (MISRII) (Rattus norvegicus, UniProt Q62893); test: rat fetal urogenital ridge (UGR) assay; details: UGR culture, 72 h
T1 construct: UGR tissue is dissected from 14.5d female fetal rats and cultured ex-vivo; from tissue; host or cells: fetal rat urogenital ridge (14.5d female), organ culture
T1 sequence (Q62893 18-557): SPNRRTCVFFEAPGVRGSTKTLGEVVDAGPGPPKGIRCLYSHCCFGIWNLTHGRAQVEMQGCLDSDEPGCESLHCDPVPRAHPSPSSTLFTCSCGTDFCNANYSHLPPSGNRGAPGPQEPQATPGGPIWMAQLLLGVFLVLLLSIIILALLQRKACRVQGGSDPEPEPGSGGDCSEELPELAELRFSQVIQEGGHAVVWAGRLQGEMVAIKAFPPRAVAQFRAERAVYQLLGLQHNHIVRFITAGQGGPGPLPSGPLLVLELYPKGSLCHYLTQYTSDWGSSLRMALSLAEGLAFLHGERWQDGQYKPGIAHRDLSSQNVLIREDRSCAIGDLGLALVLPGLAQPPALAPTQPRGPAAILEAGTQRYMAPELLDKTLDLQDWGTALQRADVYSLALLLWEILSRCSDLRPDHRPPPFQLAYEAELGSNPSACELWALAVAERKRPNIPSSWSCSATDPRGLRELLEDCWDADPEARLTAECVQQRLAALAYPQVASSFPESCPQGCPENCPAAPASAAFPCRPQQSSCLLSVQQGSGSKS
Protocol: UGR tissue is dissected from 14.5d female fetal rats and cultured ex-vivo on a semi solid substrate (agarose droplet on a metal grid) suspended over media at the air/media interface. The UGR from each female is cultured for 72 h in presence of the drugs while the contralateral ridge is cultured in vehicle (DMSO) as a control. The regression of the Mullerian duct, which is specific to MIS activity, is measured in sections of UGR after fixing and embedding.

[4] = system: OVCAR5 and primary ovarian cancer cell lines (ptD, ptH, ptG, PKD1, PKD2); test: MTT assay in a panel of ovarian cancer cell lines; assay type: cell-based, human; details: 72 h, all cell lines
Protocol: as §1

ptD cells = test: cell cycle distribution by PI staining and flow cytometry in ptD cells; assay type: cell-based, human
Excerpt: (§2) This pattern is observed in both cells lines, but is particularly pronounced in OVCAR5 (FIG. 5C).

OVCAR5 cells [5] = test: cell cycle distribution by PI staining and flow cytometry in OVCAR5 cells; assay type: cell-based, human; details: OVCAR5 synchronized by serum deprivation 24 h, 25 uM with 10% serum
Excerpt: as §2

CDKi P21 = test: qPCR expression of CDKi P21 in ptD cells; assay type: cell-based, human; details: 25 μM, 2-48 h
Excerpt: (§3) To decipher the mechanism of cell cycle block observed by treatment with M-SP600, the inventors next assessed the expression of the kinases CDKi P15 and P21 by qPCR, since these kinases control G1/S transition.

CDKi P15 = test: qPCR expression of CDKi P15; assay type: cell-based
Excerpt: as §3

[6] = system: PtD cells xenografted in the flank of nude mice; test: PtD xenograft in nude mice; assay type: in vivo; details: 30 mg/kg/day for 3 consecutive days
[7] = system: OVCAR5 cells xenografted in the flank of nude mice; test: OVCAR5 xenograft in nude mice; assay type: in vivo, mouse; details: 60 mg/kg/day, 5 days on 2 days off for 3 weeks
Protocol: A longer experiment was subsequently carried out using OVCAR5 cells xenografted at 1×10^6 in the flank of nude mice, which were treated 72 h later in a 5 days on 2 days off schedule for 3 weeks at a dose of 60 mg/kg/day using 3 groups of 5 mice randomly selected.

300 kinases = details: 0.5 μM inhibitor, 10 uM ATP; cited from earlier work
JNKs = details: Bennet et al. 2001; cited from earlier work

In the case of `COc1cccc2c1C(=O)c1c(O)c3c(c(O)c1C2=O)C[C@@](O)(C(=O)CO)C[C@@H]3O[C@H]1C[C@H](N)[C@H](O)[C@H](C)O1` [DOX, doxorubicin, reference compound], the “dose of single agent giving virtually complete cell death (95% cell death)” value (shortened to “dose … (95% cell death)”) [1] was “greater than 300 μM” and the “dose … (95% cell death)” value (OVCAR5 cells [2]) was 300 µM.
In the case of `CCOc1nc(NC(=O)Cc2cc(OC)ccc2OC)cc(N)c1C#N` [JNK inhibitor VIII, reference compound], the c-JUN phosphorylation [3] was “inhibited”.
In the case of `Cn1nc2c3c(cccc31)C(=O)c1ccccc1-2` [M-SP600, N1-methyl-1,9-pyrazolothrone], the “size of Wolffian ducts” value (MISR2 (MISRII)) was “smaller Wolffian ducts”, the pIC50 [1] was 5.20 and the “dose … (95% cell death)” value [1] was 50 µM. For the same compound, the “dose … (95% cell death)” value (OVCAR5 cells [2]) was 50 µM, the pIC50 (OVCAR5 cells [2]) was 4.90 and the “inhibition of cancer cell growth” value [4] was “inhibited”. For the same compound, the cell cycle distribution (ptD cells; asynchronous ptD cells, 25 uM, 24 h) was “marked reduction in cells in S phase accompanied by an accumulation of cells particularly in G1 and less so in G2; also recorded: more pronounced with M-SP600 than SP600”, the cell cycle block (ptD cells; ptD synchronized by serum deprivation 24 h, 25 uM with 10% serum) was “causes a G1 block” and the cell cycle block (OVCAR5 cells [5]) was “causes a G1 block”. The “expression of P21 by qPCR” value (CDKi P21) was “induce P21; also recorded: greater for the M-SP600 than the SP600”, the “expression of P15” value (CDKi P15) was “upregulation of P21 and P15” and the tolerability [6] was “well tolerated”. For the same compound, the tumor growth ([6]; one week after implant) was “strong trend emerged of inhibition of tumor growth”, the tumor growth ([7]; versus control at day 15) was “significantly inhibited” and the tumor growth ([7]; versus control at day 15, listed as MSP600, 60 mg/kg/day) was “significantly lower than control”. The “number of kinases inhibited at more than 50%” value (300 kinases) was 4 and the “inhibition of JNKs” value (JNKs) was “does not inhibit JNKs”.
For `Oc1c2ccccc2c2c3c(cccc13)N=N2` [SP600, 1,9-pyrazoloathrone, reference compound], the pIC50 [1] was 5.20, the pIC50 (OVCAR5 cells [2]) was 4.90 and the tolerability [6] was “well tolerated”.
With `CCCS(=O)(=O)Nc1ccc(F)c(C(=O)c2c[nH]c3ncc(-c4ccc(Cl)cc4)cc23)c1F` [Vemurafinib] the “sensitivity of cells to the drug” value ([1]; ptD cells with BRAF V600E mutation) was “exquisitely sensitive”.
